Assay results as given in BigSolDB 2.1.

COC(=O)/C=C(\C)N[C@@H](C(=O)[O-])c1ccc(O)cc1.[K+]
Settings	solubility (mole fraction)
in 2-pentanol, 293.25 K	6.22e-05
in 2-pentanol, 298.28 K	7.86e-05
in 2-pentanol, 303.35 K	9.99e-05
in 2-pentanol, 308.19 K	0.000117
in 2-pentanol, 313.15 K	0.000141
in 2-pentanol, 318.29 K	0.000169
in 2-pentanol, 323.15 K	0.000196
in 2-pentanol, 328.34 K	0.000233
in 2-pentanol, 333.05 K	0.000267
in 2-pentanol, 338.24 K	0.00031
in 2-pentanol, 343.26 K	0.000354
in ethanol, 293.25 K	0.000405
in ethanol, 298.26 K	0.000437
in ethanol, 303.25 K	0.000478
in ethanol, 308.19 K	0.000519
in ethanol, 313.09 K	0.00056
in ethanol, 318.26 K	0.000629
in ethanol, 323.11 K	0.000681
in ethanol, 328.18 K	0.000753
in ethanol, 333.41 K	0.000834
in ethanol, 338.31 K	0.000916
in ethanol, 343.35 K	0.00104
in isopropanol, 293.25 K	5.74e-05
in isopropanol, 298.23 K	6.38e-05
in isopropanol, 303.05 K	7.22e-05
in isopropanol, 308.41 K	8.4e-05
in isopropanol, 313.15 K	9.66e-05
in isopropanol, 318.26 K	0.000112
in isopropanol, 323.15 K	0.00013
in isopropanol, 328.19 K	0.00015
in isopropanol, 333.35 K	0.000173
in isopropanol, 338.27 K	0.000198
in isopropanol, 343.25 K	0.000225
in methanol, 293.15 K	0.00346
in methanol, 298.22 K	0.0037
in methanol, 303.15 K	0.00396
in methanol, 308.19 K	0.00424
in methanol, 313.35 K	0.00454
in methanol, 318.27 K	0.00485
in methanol, 323.35 K	0.00519
in methanol, 328.16 K	0.00552
in methanol, 333.35 K	0.006
in n-butanol, 293.15 K	9.97e-05
in n-butanol, 298.31 K	0.00011
in n-butanol, 302.95 K	0.000122
in n-butanol, 308.19 K	0.000139
in n-butanol, 312.95 K	0.000158
in n-butanol, 318.16 K	0.000181
in n-butanol, 323.25 K	0.000207
in n-butanol, 328.29 K	0.000237
in n-butanol, 333.17 K	0.000268
in n-butanol, 338.32 K	0.000304
in n-butanol, 342.95 K	0.000339
in n-pentanol, 293.05 K	8.48e-05
in n-pentanol, 298.25 K	0.000102
in n-pentanol, 303.25 K	0.000119
in n-pentanol, 308.19 K	0.000134
in n-pentanol, 313.07 K	0.000152
in n-pentanol, 318.26 K	0.00017
in n-pentanol, 323.25 K	0.00019
in n-pentanol, 328.17 K	0.000209
in n-pentanol, 333.25 K	0.000226
in n-pentanol, 338.13 K	0.000252
in n-pentanol, 343.35 K	0.000279
in n-propanol, 293.15 K	0.000178
in n-propanol, 298.23 K	0.000191
in n-propanol, 303.05 K	0.000206
in n-propanol, 308.18 K	0.000228
in n-propanol, 313.05 K	0.000256
in n-propanol, 318.29 K	0.00028
in n-propanol, 323.05 K	0.000306
in n-propanol, 328.21 K	0.000345
in n-propanol, 333.25 K	0.000382
in n-propanol, 338.34 K	0.000427
in n-propanol, 343.35 K	0.000476
in sec-butanol, 293.35 K	3.51e-05
in sec-butanol, 298.24 K	4.38e-05
in sec-butanol, 303.05 K	5.87e-05
in sec-butanol, 308.17 K	6.64e-05
in sec-butanol, 313.05 K	8.11e-05
in sec-butanol, 318.36 K	9.62e-05
in sec-butanol, 323.23 K	0.000113
in sec-butanol, 328.26 K	0.000132
in sec-butanol, 333.15 K	0.000151
in sec-butanol, 338.28 K	0.000174
in sec-butanol, 343.23 K	0.000197
